Test results published in patent US20260083674A1, “OXAZOLIDINONE LIPOSOME COMPOSITIONS” (priority 2021, published 2026).
Converted amounts (≈) assume the structure as drawn. Read-outs that look alike come from different tables or passages of the source.

System: M. tuberculosis MDR strains M70, M28, M94, M14, TN5904 and H37Rv
Test: microbe, parasite or virus in culture
Type: cell-based, Mycobacterium tuberculosis
Settings: for MIC, μg/mL in M. tuberculosis strain: M14: MDR strain M14, MABA assay; for MIC, μg/mL in M. tuberculosis strain: M28: MDR strain M28, MABA assay; for MIC, μg/mL in M. tuberculosis strain: M70: MDR strain M70, MABA assay; for MIC, μg/mL in M. tuberculosis strain: TN5904: MDR strain TN5904, MABA assay; for MIC, μg/mL in M. tuberculosis strain: H37Rv: drug-susceptible strain H37Rv, MABA assay; for MIC, μg/mL in M. tuberculosis strain: M94: MDR strain M94, MABA assay; for MIC: Mycobacterium tuberculosis, H37RV
[1] = read-out: MIC, μg/mL in M. tuberculosis strain: M94
[2] = read-out: MIC, μg/mL in M. tuberculosis strain: M28

SMILES	MIC, μg/mL in M. tuberculosis strain: M14 [µg/mL]	MIC, μg/mL in M. tuberculosis strain: M28 [µg/mL]	MIC, μg/mL in M. tuberculosis strain: M70 [µg/mL]	MIC, μg/mL in M. tuberculosis strain: TN5904 [µg/mL]	MIC, μg/mL in M. tuberculosis strain: H37Rv [µg/mL]	MIC, μg/mL in M. tuberculosis strain: M94 [µg/mL]	MIC [1] [µg/mL]	MIC (read-out: MIC, μg/mL in M. tuberculosis strain: TN5904) [µg/mL]	MIC [2] [µg/mL]
CO[C@H]1/C=C/O[C@@]2(C)Oc3c(C)c(O)c4c(O)c(c(/C=N/N5CCN(C)CC5)c(O)c4c3C2=O)NC(=O)/C(C)=C\C=C\[C@H](C)[C@H](O)[C@@H](C)[C@@H](O)[C@@H](C)[C@H](OC(C)=O)[C@@H]1C [RIF]	0.06 (≈ 0.0729 µM)	>8	>8	>8	0.06 (≈ 0.0729 µM)				
NNC(=O)c1ccncc1 [INH]	>2	>2	>2	2 (≈ 14.6 µM)	0.06 (≈ 0.438 µM)	>2			
COc1c(N2C[C@@H]3CCCN[C@@H]3C2)c(F)cc2c(=O)c(C(=O)O)cn(C3CC3)c12 [MOX]							0.125 (≈ 0.311 µM)		
CC(=O)NC[C@H]1CN(c2ccc(-c3ccc(-c4nnn(CCN(C)C)n4)nc3)c(F)c2)C(=O)O1 [AKG-38]								0.03 (≈ 0.064 µM)	
CN[C@@H]1[C@H](O[C@H]2[C@H](O[C@H]3[C@H](O)[C@@H](O)[C@H](N=C(N)N)[C@@H](O)[C@@H]3N=C(N)N)O[C@@H](C)[C@]2(O)C=O)O[C@@H](CO)[C@H](O)[C@H]1O [STR]	>8	0.125 (≈ 0.215 µM)	2 (≈ 3.44 µM)	1 (≈ 1.72 µM)	0.5 (≈ 0.86 µM)	>8			
Cl.Cl.NCCn1nnc(-c2ccc(-c3ccc(N4C[C@H](CN)OC4=O)cc3F)cn2)n1 [AKG-29]							0.125		0.125
Cn1nnc(-c2ccc(-c3ccc(N4C[C@H](CN)OC4=O)cc3F)cn2)n1 [AKG-3]							0.06 (≈ 0.162 µM)		0.06 (≈ 0.162 µM)
